Assay results taken from patent US8486996B2, “Aroylfuranes and aroylthiophenes” (Basilea Pharmaceutica AG, priority 2006, dated 2013).
Where two headings read alike, the source gives them in different places.

Columns and labels:
[1] = Hoechst 33342 nuclear staining (48 h read-out); assay type: cell-based
Summary of the method: (§1)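 Adherent cells pre-spread 24 h before dosing, suspension cells dosed at seeding; compounds at 0.001 μM-10 μM final, 48 h at culture conditions. Hoechst 33342 (2-5 μg/ml) added for 30 min, then fluorescence microscopy scoring of apoptotic nuclear fraction and apoptosis-specific morphology, reported as scores A-D.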

tumor cells [2] = assay: Hoechst 33342 nuclear staining (48 h read-out); assay type: cell-based
Summary of the method: as §1

[3] = MTS proliferation assay (72 h read-out); assay type: cell-based; settings: Homo sapiens, MRC5 cells
Summary of the method: (§2)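 Tumour cells (1.5×10^3–10^4 per well) were seeded 24 h before compound addition, then exposed to 0.001–10 μM final compound for 72 h under culture conditions. MTS reagent was added for a further 3 h, absorbance was read at 492 nm, and results were binned into scores A–D.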

tumor cells [4] = assay: MTS proliferation assay (72 h read-out); assay type: cell-based
Summary of the method: as §2

[5] = Mitochondrial membrane potential, JC-1 (read-out 48 h); assay type: cell-based; settings: PBL, JC-1, 48 h
Summary of the method: (§3)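 Tumor cells were treated with test compounds (adherent cells after 24 h of attachment, suspension cells immediately), medium holding up to 5% DMSO. After 48 h, JC-1 (2-5 μg/ml in added medium) was applied for 30 min. Fluorescence microscopy (FITC/TRITC filters) scored the fraction of cells with dissipated mitochondrial membrane potential as categories A-D.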

tumor cells [6] = assay: as above; assay type: cell-based; settings: JC-1, 48 h
Summary of the method: as §3

HeLa = assay: Colony Forming Units (read-out 6 days), HeLa; assay type: cell-based, human; settings: Homo sapiens, 144 h, colonies containing more than 30 cells, read-out: Colony Forming Units, score based on IC50, HeLa
Experimental: (§4) Appropriate numbers of cells (100-150 cells, dependent on the cell type) are being seeded out in 1 ml complete medium into 6-well plates and allowed to attach for 48 h. The compounds are added after 48 h in 500 μl solution. The concentrations are in the range of 0.001 μM-3 μM. Control plates receive the same volume of medium containing the appropriate amount of DMSO. The plates are incubated for 5-7 days at cell culture conditions and subsequently scored for growth of colonies (containing more than 30 cells) by using a microscope.

H460 = assay: Colony Forming Units (read-out 6 days), H460; assay type: cell-based, human; settings: Homo sapiens, NCI-H460, 144 h, colonies containing more than 30 cells, read-out: Colony Forming Units, score based on IC50, H460
Experimental: as §4

[7] = Homo sapiens, MRC5 cells, read-out: Hoechst 33342 nuclear staining EC50, MRC5
[8] = Homo sapiens, HeLa cells, read-out: Hoechst 33342 nuclear staining EC50, HeLa
[9] = Homo sapiens, Jurkat cells, read-out: Hoechst 33342 nuclear staining EC50, Jurkat
[10] = Jily cells, read-out: Hoechst 33342 nuclear staining EC50, Jily
[11] = Homo sapiens, HT-1080, HT1080 cells, read-out: MTS proliferation assay IC50, HT1080
[12] = Homo sapiens, HeLa cells, read-out: MTS proliferation assay IC50, HeLa
[13] = Homo sapiens, Jurkat cells, read-out: MTS proliferation assay IC50, Jurkat
[14] = Jily cells, read-out: MTS proliferation assay IC50, Jily
[15] = Homo sapiens, HeLa cells, read-out: Mitochondrial membrane potential (read-out 48 h) HeLa
[16] = Homo sapiens, Jurkat cells, read-out: Mitochondrial membrane potential (read-out 48 h) Jurkat
[17] = Homo sapiens, MCF7 cells, read-out: Mitochondrial membrane potential (read-out 48 h) MCF7
[18] = Jily cells, read-out: Mitochondrial membrane potential (read-out 48 h) Jily
[19] = PBL, read-out: Hoechst 33342 nuclear staining EC50, PBL

Row | EC50 (tumor cells [2]; [8]) | EC50 (tumor cells [2]; [9]) | EC50 (tumor cells [2]; [10]) | IC50 (tumor cells [4]; [11]) | IC50 (tumor cells [4]; [12]) | IC50 (tumor cells [4]; [13]) | IC50 (tumor cells [4]; [14]) | EC50 [5] | EC50 (tumor cells [6]; [15]) | EC50 (tumor cells [6]; [16]) | EC50 (tumor cells [6]; [17]) | EC50 (tumor cells [6]; [18]) | IC50 (HeLa) | IC50 (H460) | melting point | EC50 [1, 19] | Compound | EC50 [1, 7] | IC50 [3]
1 | < 10 nM | < 10 nM | < 10 nM | < 10 nM | 10 to 100 nM | < 10 nM | < 10 nM | > 1000 nM | 10 to 100 nM | < 10 nM | 10 to 100 nM | < 10 nM | 10 to 100 nM | < 10 nM | 124 to 125 °C | – | CCOc1ccc(OC)cc1C(=O)c1oc2ccc(Cl)cc2c1N [Example 12] | 100 to 1000 nM | < 10 nM
2 | 10 to 100 nM | 10 to 100 nM | 10 to 100 nM | 10 to 100 nM | 10 to 100 nM | < 10 nM | < 10 nM | > 1000 nM | 10 to 100 nM | 10 to 100 nM | 10 to 100 nM | 10 to 100 nM | 10 to 100 nM | 10 to 100 nM | 95 to 97 °C | – | CCCOc1ccc(OC)cc1C(=O)c1oc2ccc(Cl)cc2c1N [Example 14] | 10 to 100 nM | 10 to 100 nM
3 | 100 to 1000 nM | 10 to 100 nM | 10 to 100 nM | 10 to 100 nM | 100 to 1000 nM | 10 to 100 nM | 10 to 100 nM | > 1000 nM | 100 to 1000 nM | 10 to 100 nM | 100 to 1000 nM | 100 to 1000 nM | 10 to 100 nM | 10 to 100 nM | 131 to 132 °C | – | COc1ccc(OC(C)C)c(C(=O)c2oc3ccc(Cl)cc3c2N)c1 [Example 15] | 100 to 1000 nM | 10 to 100 nM
4 | < 10 nM | < 10 nM | < 10 nM | < 10 nM | < 10 nM | < 10 nM | < 10 nM | > 1000 nM | < 10 nM | < 10 nM | < 10 nM | < 10 nM | < 10 nM | < 10 nM | 132 to 134 °C | > 1000 nM | CCOc1ccc(F)cc1C(=O)c1oc2ccc(Cl)cc2c1N [Example 18] | < 10 nM | < 10 nM

The next lines start with the compound.

Row | Compound | EC50 (tumor cells [2]; [8]) | EC50 (tumor cells [2]; [9]) | EC50 (tumor cells [2]; [10]) | IC50 (tumor cells [4]; [11]) | IC50 (tumor cells [4]; [12]) | IC50 (tumor cells [4]; [13]) | IC50 (tumor cells [4]; [14]) | EC50 [5] | EC50 (tumor cells [6]; [15]) | EC50 (tumor cells [6]; [16]) | EC50 (tumor cells [6]; [17]) | EC50 (tumor cells [6]; [18]) | IC50 (HeLa) | IC50 (H460) | melting point | EC50 [1, 19] | EC50 [1, 7] | IC50 [3]
5 | CC(C)Oc1ccccc1C(=O)c1oc2ccc(Cl)cc2c1N [Example 9] | 100 to 1000 nM | 10 to 100 nM | 100 to 1000 nM | 10 to 100 nM | 100 to 1000 nM | 10 to 100 nM | 10 to 100 nM | > 1000 nM | 100 to 1000 nM | 10 to 100 nM | 100 to 1000 nM | 100 to 1000 nM | 10 to 100 nM | 10 to 100 nM | 110 °C | – | 100 to 1000 nM | 100 to 1000 nM
6 | CCOc1ccc(F)cc1C(=O)c1oc2nc(C)ccc2c1N [Example 29] | 10 to 100 nM | 10 to 100 nM | 10 to 100 nM | < 10 nM | 10 to 100 nM | < 10 nM | < 10 nM | > 1000 nM | 10 to 100 nM | 10 to 100 nM | 10 to 100 nM | 10 to 100 nM | 10 to 100 nM | 10 to 100 nM | 152 to 156 °C | > 1000 nM | 100 to 1000 nM | 10 to 100 nM
7 | CCOc1ccc(C)cc1C(=O)COc1ccc(Cl)cc1C#N [Example 144] | 100 to 1000 nM | 10 to 100 nM | 10 to 100 nM | 100 to 1000 nM | 100 to 1000 nM | 10 to 100 nM | 10 to 100 nM | > 1000 nM | 100 to 1000 nM | 10 to 100 nM | 100 to 1000 nM | – | – | – | 144 to 146 °C | > 1000 nM | 100 to 1000 nM | 100 to 1000 nM
